Measured values taken from ChEMBL document CHEMBL5291721, “A preclinical secondary pharmacology resource illuminates target-adverse drug reaction associations of marketed drugs” (Nat Commun, 2023).

What was measured:
[1] = target: Beta-2 adrenergic receptor (Homo sapiens, UniProt P07550); format: functional, cell-based
Androgen receptor [2] = target: T1, Androgen receptor (Rattus norvegicus, UniProt P15207); format: functional
T1 sequence (P15207 whole entry): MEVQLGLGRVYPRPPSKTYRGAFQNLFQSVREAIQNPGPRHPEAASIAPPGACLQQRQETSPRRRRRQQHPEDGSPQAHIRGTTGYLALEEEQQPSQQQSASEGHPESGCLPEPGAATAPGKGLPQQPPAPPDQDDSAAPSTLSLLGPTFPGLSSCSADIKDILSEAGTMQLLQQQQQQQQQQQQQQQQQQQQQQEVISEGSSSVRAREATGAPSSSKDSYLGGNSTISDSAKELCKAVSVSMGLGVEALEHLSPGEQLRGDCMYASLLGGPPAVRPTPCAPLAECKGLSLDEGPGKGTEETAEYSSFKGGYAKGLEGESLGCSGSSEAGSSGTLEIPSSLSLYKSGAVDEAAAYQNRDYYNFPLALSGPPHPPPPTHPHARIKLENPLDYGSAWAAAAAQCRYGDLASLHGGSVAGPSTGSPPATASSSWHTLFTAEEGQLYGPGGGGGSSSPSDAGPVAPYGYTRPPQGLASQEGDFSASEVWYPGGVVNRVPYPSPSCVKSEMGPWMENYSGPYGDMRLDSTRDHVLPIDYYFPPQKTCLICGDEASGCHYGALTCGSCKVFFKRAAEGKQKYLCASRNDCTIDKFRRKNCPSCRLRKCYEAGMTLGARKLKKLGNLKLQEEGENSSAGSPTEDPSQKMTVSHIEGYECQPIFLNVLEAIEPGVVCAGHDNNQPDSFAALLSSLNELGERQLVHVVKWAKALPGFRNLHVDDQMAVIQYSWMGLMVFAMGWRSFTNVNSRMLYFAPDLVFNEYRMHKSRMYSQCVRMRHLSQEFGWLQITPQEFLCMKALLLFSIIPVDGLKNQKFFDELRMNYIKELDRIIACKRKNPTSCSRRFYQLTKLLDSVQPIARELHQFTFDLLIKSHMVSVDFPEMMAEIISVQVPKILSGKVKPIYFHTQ

[3] = target: T2, 5-hydroxytryptamine receptor 1A (Homo sapiens, UniProt P08908)
T2 sequence (P08908 whole entry): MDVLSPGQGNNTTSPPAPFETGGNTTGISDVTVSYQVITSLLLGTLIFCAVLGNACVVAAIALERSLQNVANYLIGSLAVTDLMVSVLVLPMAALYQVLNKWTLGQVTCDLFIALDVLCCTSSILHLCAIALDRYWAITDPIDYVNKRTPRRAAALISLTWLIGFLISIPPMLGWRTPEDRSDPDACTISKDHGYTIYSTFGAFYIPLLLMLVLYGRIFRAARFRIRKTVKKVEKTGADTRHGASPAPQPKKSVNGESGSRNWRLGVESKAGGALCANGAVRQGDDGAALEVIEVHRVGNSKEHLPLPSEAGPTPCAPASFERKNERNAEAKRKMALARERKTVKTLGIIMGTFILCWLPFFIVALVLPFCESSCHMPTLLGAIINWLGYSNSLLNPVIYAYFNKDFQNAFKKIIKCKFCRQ

Androgen receptor [4] = target: T1, Androgen receptor; format: functional; remark: listed apart in the source
[5] = target: T3, Alpha-1A adrenergic receptor (Homo sapiens, UniProt P35348)
T3 sequence (P35348 whole entry): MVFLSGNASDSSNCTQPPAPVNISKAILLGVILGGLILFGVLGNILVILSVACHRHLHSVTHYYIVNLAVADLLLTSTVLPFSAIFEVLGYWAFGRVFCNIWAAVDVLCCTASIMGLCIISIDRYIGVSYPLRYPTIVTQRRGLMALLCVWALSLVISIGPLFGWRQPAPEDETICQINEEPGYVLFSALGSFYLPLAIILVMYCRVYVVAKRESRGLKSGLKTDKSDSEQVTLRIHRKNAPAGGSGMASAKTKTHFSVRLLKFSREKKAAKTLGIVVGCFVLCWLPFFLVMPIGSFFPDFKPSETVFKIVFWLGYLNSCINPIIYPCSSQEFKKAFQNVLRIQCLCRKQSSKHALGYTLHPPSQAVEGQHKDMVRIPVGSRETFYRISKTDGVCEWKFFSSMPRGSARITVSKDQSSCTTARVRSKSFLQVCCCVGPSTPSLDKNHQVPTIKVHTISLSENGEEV

[6] = target: 5-hydroxytryptamine receptor 2A (Homo sapiens, UniProt P28223)
Chain of 5-hydroxytryptamine receptor 2A (P28223 whole entry): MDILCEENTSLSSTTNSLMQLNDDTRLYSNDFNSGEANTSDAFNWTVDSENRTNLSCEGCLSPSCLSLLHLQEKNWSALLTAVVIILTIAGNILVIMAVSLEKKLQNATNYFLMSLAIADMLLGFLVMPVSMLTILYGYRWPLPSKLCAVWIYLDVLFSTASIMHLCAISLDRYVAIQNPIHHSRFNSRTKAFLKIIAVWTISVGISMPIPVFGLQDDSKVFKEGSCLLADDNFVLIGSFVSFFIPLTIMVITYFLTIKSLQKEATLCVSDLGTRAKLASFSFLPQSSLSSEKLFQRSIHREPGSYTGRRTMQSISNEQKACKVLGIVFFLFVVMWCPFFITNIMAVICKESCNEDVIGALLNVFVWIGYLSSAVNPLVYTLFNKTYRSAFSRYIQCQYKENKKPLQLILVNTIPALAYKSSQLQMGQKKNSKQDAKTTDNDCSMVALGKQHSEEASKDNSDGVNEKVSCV

[7] = target: T3, Alpha-1A adrenergic receptor; format: functional, cell-based
[8] = target: 5-hydroxytryptamine receptor 2B (Homo sapiens, UniProt P41595)
Chain of 5-hydroxytryptamine receptor 2B (P41595 whole entry): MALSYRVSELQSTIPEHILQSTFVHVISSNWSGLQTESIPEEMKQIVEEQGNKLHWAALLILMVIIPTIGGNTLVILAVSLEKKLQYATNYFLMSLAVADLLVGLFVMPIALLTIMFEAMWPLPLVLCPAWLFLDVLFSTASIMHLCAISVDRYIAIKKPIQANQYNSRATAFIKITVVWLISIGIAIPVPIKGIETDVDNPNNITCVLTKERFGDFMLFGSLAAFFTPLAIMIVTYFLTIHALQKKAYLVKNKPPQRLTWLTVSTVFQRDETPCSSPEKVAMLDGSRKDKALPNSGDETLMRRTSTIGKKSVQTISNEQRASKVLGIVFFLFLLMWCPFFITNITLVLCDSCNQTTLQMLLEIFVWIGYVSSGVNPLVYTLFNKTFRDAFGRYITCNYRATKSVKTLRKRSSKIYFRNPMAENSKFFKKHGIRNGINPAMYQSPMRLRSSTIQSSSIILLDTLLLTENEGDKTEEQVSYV

Melanocortin receptor 4 = Melanocortin receptor 4 (Homo sapiens, UniProt P32245)
Chain of Melanocortin receptor 4 (P32245 whole entry): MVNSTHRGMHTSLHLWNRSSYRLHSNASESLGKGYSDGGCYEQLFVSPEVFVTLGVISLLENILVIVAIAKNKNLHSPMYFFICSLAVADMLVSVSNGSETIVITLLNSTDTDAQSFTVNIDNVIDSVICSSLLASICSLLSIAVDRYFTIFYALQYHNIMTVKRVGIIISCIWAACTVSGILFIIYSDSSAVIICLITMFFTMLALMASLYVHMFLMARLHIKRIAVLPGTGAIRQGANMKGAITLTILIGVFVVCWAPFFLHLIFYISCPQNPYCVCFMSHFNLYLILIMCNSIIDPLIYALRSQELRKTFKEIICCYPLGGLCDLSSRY

[9] = target: T4, Alpha-2A adrenergic receptor (Homo sapiens, UniProt P08913)
T4 sequence (P08913 whole entry): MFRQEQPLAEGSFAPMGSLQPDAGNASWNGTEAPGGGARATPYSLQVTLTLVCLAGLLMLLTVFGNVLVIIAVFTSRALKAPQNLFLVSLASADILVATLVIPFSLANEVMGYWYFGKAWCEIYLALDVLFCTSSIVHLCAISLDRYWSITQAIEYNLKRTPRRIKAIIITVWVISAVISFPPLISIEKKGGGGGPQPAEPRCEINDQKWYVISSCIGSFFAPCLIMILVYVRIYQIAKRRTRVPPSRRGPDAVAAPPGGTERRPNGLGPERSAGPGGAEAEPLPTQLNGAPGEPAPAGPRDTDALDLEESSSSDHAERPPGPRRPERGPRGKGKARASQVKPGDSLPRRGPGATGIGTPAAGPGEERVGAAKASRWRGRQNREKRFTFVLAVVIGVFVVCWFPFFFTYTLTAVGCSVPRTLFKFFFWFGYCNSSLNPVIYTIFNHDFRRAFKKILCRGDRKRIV

D(1A) dopamine receptor = D(1A) dopamine receptor (Homo sapiens, UniProt P21728)
Chain of D(1A) dopamine receptor (P21728 whole entry): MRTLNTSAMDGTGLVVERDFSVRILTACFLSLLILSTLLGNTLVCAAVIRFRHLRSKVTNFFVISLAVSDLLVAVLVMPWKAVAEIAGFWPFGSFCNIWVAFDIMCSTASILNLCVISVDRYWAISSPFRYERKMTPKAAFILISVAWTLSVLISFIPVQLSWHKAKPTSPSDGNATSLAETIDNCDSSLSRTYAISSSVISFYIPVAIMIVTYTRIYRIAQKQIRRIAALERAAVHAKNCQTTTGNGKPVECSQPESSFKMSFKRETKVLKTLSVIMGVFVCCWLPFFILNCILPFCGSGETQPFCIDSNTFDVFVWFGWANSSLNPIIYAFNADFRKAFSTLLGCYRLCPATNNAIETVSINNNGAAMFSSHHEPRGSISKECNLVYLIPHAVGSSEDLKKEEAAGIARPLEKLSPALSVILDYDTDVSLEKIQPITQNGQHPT
Further: assay procedure not described here.

Chain of Beta-2 adrenergic receptor (P07550 whole entry): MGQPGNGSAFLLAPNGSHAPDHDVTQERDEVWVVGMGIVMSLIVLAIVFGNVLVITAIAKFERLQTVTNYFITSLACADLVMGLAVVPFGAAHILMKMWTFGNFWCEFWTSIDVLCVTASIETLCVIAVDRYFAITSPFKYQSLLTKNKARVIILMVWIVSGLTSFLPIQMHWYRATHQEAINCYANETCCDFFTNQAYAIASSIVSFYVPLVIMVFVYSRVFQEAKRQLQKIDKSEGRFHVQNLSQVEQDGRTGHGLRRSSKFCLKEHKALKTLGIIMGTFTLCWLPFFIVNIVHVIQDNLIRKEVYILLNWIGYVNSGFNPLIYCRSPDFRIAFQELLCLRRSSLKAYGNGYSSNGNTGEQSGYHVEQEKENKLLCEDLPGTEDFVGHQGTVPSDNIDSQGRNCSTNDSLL

SMILES | AC50 [1] | AC50 (Androgen receptor [2]) | AC50 [3] | AC50 (Androgen receptor [4]) | AC50 [5] | AC50 [6] | AC50 [7] | AC50 [8] | AC50 (Melanocortin receptor 4) | AC50 [9] | AC50 (D(1A) dopamine receptor)
CC(=O)O[C@H]1CC[C@@]2(C)C(=CC[C@@H]3[C@@H]2CC[C@]2(C)C(c4cccnc4)=CC[C@@H]32)C1 [ABIRATERONE ACETATE] | > 30 µM | > 30 µM | > 10 µM | > 30 µM | > 10 µM | > 10 µM | > 30 µM |  |  |  | 
COc1ccccc1OCCNCC(O)c1ccc(C)c(S(N)(=O)=O)c1 (configuration not stated) [AMOSULALOL] |  | > 30 µM | 0.052 µM | > 30 µM | 0.3 µM |  | 0.24 µM | > 30 µM |  |  | 
Cc1cc(O)c(C(=O)N[C@@H](C(=O)N[C@@H]2C(=O)N3C(C(=O)O)=C(CSc4nnnn4C)CS[C@H]23)c2ccc(O)cc2)cn1 [CEFPIRAMIDE] |  | > 30 µM |  | > 30 µM | > 30 µM |  |  |  | > 30 µM |  | 
Cn1c(=O)c2c(ncn2CC2OCCO2)n(C)c1=O [DOXOFYLLINE] | > 30 µM | > 30 µM |  | > 30 µM |  |  | > 30 µM |  |  |  | 
CCCCc1ncc(/C=C(\Cc2cccs2)C(=O)O)n1Cc1ccc(C(=O)O)cc1 [EPROSARTAN] | > 30 µM |  | > 10 µM |  | > 10 µM | > 10 µM | > 30 µM | > 10 µM | > 10 µM | > 10 µM | > 10 µM
CCc1c(Cl)c(O)c(Cl)c(O)c1C(=O)O[C@H]1[C@H](O)[C@H](OC)[C@H](OC/C2=C\C=C\C[C@H](O)/C(C)=C/[C@H](CC)[C@@H](O[C@@H]3OC(C)(C)[C@@H](OC(=O)C(C)C)[C@H](O)[C@@H]3O)/C(C)=C/C(C)=C/C[C@@H]([C@@H](C)O)OC2=O)O[C@@H]1C [FIDAXOMICIN] |  |  | > 10 µM | > 30 µM |  | > 10 µM |  | > 10 µM | > 30 µM | > 10 µM | > 10 µM
CCC(C(=O)O)c1ccc(N2Cc3ccccc3C2=O)cc1 (configuration not stated) [INDOBUFEN] | > 30 µM | > 30 µM |  | > 30 µM |  |  | 5.3 µM |  |  |  | 
CC(C)OC(=O)CCC/C=C\C[C@@H]1[C@@H](CC[C@@H](O)CCc2ccccc2)[C@H](O)C[C@@H]1O [LATANOPROST] | > 30 µM | > 30 µM |  | > 30 µM |  |  |  |  |  |  | 
CC(Oc1c(Cl)cccc1Cl)C1=NCCN1 (configuration not stated) [LOFEXIDINE] |  | > 30 µM | 0.29 µM | > 30 µM | 0.803 µM |  |  |  |  |  | 
CN1C(=O)C(O)N=C(c2ccccc2Cl)c2cc(Cl)ccc21 (configuration not stated) [LORMETAZEPAM] |  | > 30 µM |  | > 30 µM |  |  | > 30 µM |  |  |  | 
CC(C)=CCC/C(C)=C/C=C/C(C)=C/C=C/C(C)=C/C=C/C=C(C)/C=C/C=C(C)/C=C/C=C(\C)CCC=C(C)C [LYCOPENE] |  | 24 µM |  | > 30 µM |  |  | > 30 µM |  |  |  | 
COc1ccc2c3c1O[C@H]1C(=O)CC[C@@]4(O)[C@@H](C2)N(C)CC[C@]314 [OXYCODONE] |  | > 30 µM |  | > 30 µM |  |  | > 30 µM |  |  |  | 
Clc1ccc(CCCOCCCN2CCCCC2)cc1 [PITOLISANT] | > 30 µM | > 30 µM |  | > 30 µM |  |  | > 30 µM |  |  |  | 
Cc1ccc(-n2nccn2)c(C(=O)N2CCN(c3nc4cc(Cl)ccc4o3)CC[C@H]2C)c1 [SUVOREXANT] |  | > 30 µM |  | > 30 µM |  |  | > 30 µM |  |  |  | 
CN1C(=O)C(O)N=C(c2ccccc2)c2cc(Cl)ccc21 (configuration not stated) [TEMAZEPAM] | > 30 µM |  | > 10 µM |  | > 10 µM | > 10 µM |  | > 10 µM | > 30 µM | > 10 µM | > 10 µM
CCN(CC)C(=O)N[C@H]1C[C@@H]2c3cccc4[nH]cc(c34)C[C@H]2N(C)C1 [TERGURIDE] | > 30 µM | > 30 µM |  | > 30 µM |  |  | 1.1 µM |  |  |  | 0.41 µM
